Experimental data published in ChEMBL document CHEMBL3885861, “Open TG-GATES”.

Species on record: Rattus norvegicus
Experiment: Open TG-GATES - Regimen: Single
Format: toxicity, organism-based, Sprague-Dawley
Parameters: regimen Single, gender Male, age 6 weeks
Settings: in vivo, po, route gavage; for APTT / Bas / Eos / Fbg / Hb / Ht / Lym / MCHC / MCV / Mono / Neu / PT / Plat / RBC / Ret / WBC: tissue Blood; for KIDNEY_L / KIDNEY_R / KIDNEY_TOTAL: tissue Kidney; for LIVER: tissue Liver; for ALP / ALT / AST / BUN / CRE / Ca / Cl / DBIL / GLC / IP / K / LDH / Na / PL / RALB / TBIL / TC / TG / TP / gamma-GTP: tissue Plasma
[1] = 0 mg/kg, 3 h, dose level Control
[2] = 0 mg/kg, 6 h, dose level Control
[3] = 0 mg/kg, 9 h, dose level Control
[4] = 0 mg/kg, 24 h, dose level Control

CN(C)C(=N)N=C(N)N [METFORMIN]
TERMINAL_BW [1]: 200.9 g | APTT [1]: 16.9 s | Bas [1]: 0% | Eos [1]: 0.6% | Fbg [1]: 245.6 mg/dL | Hb [1]: 13.1 g/dL | Ht [1]: 39.6% | Lym [1]: 76.8% | MCHC [1]: 33% | MCV [1]: 65.3 fL | Mono [1]: 3.4% | Neu [1]: 18.4% | PT [1]: 12.3 s | Plat [1]: 111.6 x10_4/uL | RBC [1]: 606.6 x10_4/ul | Ret [1]: 10.1% | WBC [1]: 96.1 x10_2/uL | KIDNEY_L [1]: 0.9 g | KIDNEY_R [1]: 0.9 g | KIDNEY_TOTAL [1]: 1.8 g | LIVER [1]: 8.5 g | ALP [1]: 1612 IU/L | ALT [1]: 43.6 IU/L | AST [1]: 74.2 IU/L | BUN [1]: 9.2 mg/dL | CRE [1]: 0.2 mg/dL | Ca [1]: 11.1 mg/dL | Cl [1]: 104 meq/L | DBIL [1]: 0.016 mg/dL | GLC [1]: 179.8 mg/dL | IP [1]: 9.2 mg/dL | K [1]: 4.2 meq/L | LDH [1]: 58.2 IU/L | Na [1]: 140 meq/L | PL [1]: 136.6 mg/dL | RALB [1]: 2.5 g/dL | TBIL [1]: 0.052 mg/dL | TC [1]: 87 mg/dL | TG [1]: 42.2 mg/dL | TP [1]: 5.2 g/dL | gamma-GTP [1]: 1.4 IU/L | TERMINAL_BW [2]: 202.6 g | APTT [2]: 16.1 s | Bas [2]: 0% | Eos [2]: 0.8% | Fbg [2]: 261 mg/dL | Hb [2]: 12.9 g/dL | Ht [2]: 38.9% | Lym [2]: 77.2% | MCV [2]: 62.9 fL | Mono [2]: 3% | Neu [2]: 18.4% | PT [2]: 12.2 s | Plat [2]: 113.4 x10_4/uL | RBC [2]: 618.4 x10_4/ul | Ret [2]: 9.2% | WBC [2]: 92.1 x10_2/uL | KIDNEY_L [2]: 0.9 g | KIDNEY_R [2]: 0.9 g | KIDNEY_TOTAL [2]: 1.8 g | LIVER [2]: 8 g | ALP [2]: 1285 IU/L | ALT [2]: 44.8 IU/L | AST [2]: 78.8 IU/L | BUN [2]: 7.6 mg/dL | CRE [2]: 0.1 mg/dL | Ca [2]: 10.7 mg/dL | Cl [2]: 104.8 meq/L | DBIL [2]: 0.006 mg/dL | GLC [2]: 161 mg/dL | IP [2]: 9.9 mg/dL | K [2]: 4.1 meq/L | LDH [2]: 64 IU/L | Na [2]: 139.4 meq/L | PL [2]: 121 mg/dL | RALB [2]: 2.4 g/dL | TBIL [2]: 0.046 mg/dL | TG [2]: 27.2 mg/dL | TP [2]: 5 g/dL | gamma-GTP [2]: 1 IU/L | TERMINAL_BW [3]: 201 g | APTT [3]: 16 s | Bas [3]: 0% | Eos [3]: 1% | Fbg [3]: 244.8 mg/dL | Hb [3]: 12.4 g/dL | Lym [3]: 73.8% | MCV [3]: 64.5 fL | Mono [3]: 3.2% | Neu [3]: 21.4% | PT [3]: 12.2 s | Plat [3]: 107.6 x10_4/uL | RBC [3]: 577.8 x10_4/ul | Ret [3]: 10% | WBC [3]: 75.6 x10_2/uL | KIDNEY_L [3]: 0.9 g | KIDNEY_R [3]: 0.9 g | KIDNEY_TOTAL [3]: 1.7 g | LIVER [3]: 7.7 g | ALP [3]: 1175 IU/L | ALT [3]: 41.6 IU/L | AST [3]: 69.6 IU/L | BUN [3]: 9 mg/dL | CRE [3]: 0.1 mg/dL | Ca [3]: 10.6 mg/dL | Cl [3]: 105 meq/L | DBIL [3]: 0.008 mg/dL | GLC [3]: 164.8 mg/dL | IP [3]: 10.5 mg/dL | K [3]: 4 meq/L | LDH [3]: 49 IU/L | Na [3]: 141 meq/L | PL [3]: 136.4 mg/dL | RALB [3]: 2.5 g/dL | TBIL [3]: 0.042 mg/dL | TC [3]: 87 mg/dL | TG [3]: 35.6 mg/dL | TP [3]: 5.1 g/dL | gamma-GTP [3]: 1 IU/L | TERMINAL_BW [4]: 207.9 g | APTT [4]: 16.4 s | Bas [4]: 0% | Eos [4]: 1% | Fbg [4]: 230.4 mg/dL | Hb [4]: 13 g/dL | Ht [4]: 38.7% | Lym [4]: 77% | MCHC [4]: 33.5% | Mono [4]: 3.8% | Neu [4]: 17.8% | PT [4]: 12.5 s | Plat [4]: 115 x10_4/uL | RBC [4]: 595.2 x10_4/ul | Ret [4]: 8.9% | WBC [4]: 101.4 x10_2/uL | KIDNEY_L [4]: 0.9 g | KIDNEY_R [4]: 0.9 g | KIDNEY_TOTAL [4]: 1.8 g | LIVER [4]: 10 g | ALP [4]: 1728.6 IU/L | ALT [4]: 49.8 IU/L | AST [4]: 78.2 IU/L | BUN [4]: 16 mg/dL | CRE [4]: 0.2 mg/dL | Ca [4]: 11.4 mg/dL | Cl [4]: 103.8 meq/L | DBIL [4]: 0.012 mg/dL | GLC [4]: 173 mg/dL | IP [4]: 8.6 mg/dL | K [4]: 3.9 meq/L | LDH [4]: 63.6 IU/L | Na [4]: 141.2 meq/L | PL [4]: 139 mg/dL | RALB [4]: 2.6 g/dL | TBIL [4]: 0.038 mg/dL | TG [4]: 89.6 mg/dL | TP [4]: 5.5 g/dL | gamma-GTP [4]: 1 IU/L | TERMINAL_BW (100 mg/kg, 3 h, dose level Low): 201 g
